Measured values published in patent US20110275517A1, “SYNERGISTIC HERBICIDAL COMPOSITION CONTAINING A DICAMBA DERIVATIVE AND A […]” (DOW AGROSCIENCES LLC, priority 2010, published 2011).

Assays:
Type in all cases: in vivo
Details in all cases: rated after 14-21 d
[1] = tested on: CHEAL GLY-RES (Glyphosate-resistant Chenopodium album); test: Greenhouse postemergence foliar herbicidal test on CHEAL GLY-RES
Description: (§1) Seeds of the desired test plant species were planted in Sun Gro MetroMix 306 planting mixture, which typically has a pH of 6.0 to 6.8 and an organic matter content of about 30 percent, in plastic pots with a surface area of 103.2 square centimeters (cm^2). […] The plants were grown for 7-36 days (d) in a greenhouse with an approximate 16 hour (h) photoperiod which was maintained at about 28° C. during the day and 26° C. during the night. Nutrients and water were added on a regular basis and supplemental lighting was provided with overhead metal halide 1000-Watt lamps as necessary. The plants were employed for testing when they reached the second or third true leaf stage.
(§2) Treatments consisted of Banvel™ (dicamba dimethylamine salt) and Durango™ herbicide (glyphosate dimethylamine salt) alone and in combinations. An aliquot of
(§3) Banvel^TM (dicamba dimethylamine salt) was placed in 25 milliliter (mL) glass vials and diluted in a volume of water to obtain 1.5 milligrams (mg) active ingredient (ai)/mL concentrated solutions. Subsequent concentrations of Banvel™ (dicamba dimethylamine salt) were obtained by dilution with an equal volume of water. Spray solutions of Durango™ herbicide (glyphosate dimethylamine salt) were prepared following the aforementioned procedure. An aliquot of Durango™ herbicide (glyphosate dimethylamine salt) was placed in 25 milliter (mL) glass vials and mixed in a volume of 100:2 w/w water/ammonium sulfate (AMS) dilution solution to obtain 1.5 milligrams (mg) active ingredient (ai)/mL concentrated solutions.
(§4) Compound requirements are based upon a 12 mL application volume at a rate of 187 liters per hectare (L/ha). Spray solutions of the Banvel^TM (dicamba dimethylamine salt) and Durango™ herbicide (glyphosate dimethylamine salt) were prepared by adding the concentrated solutions to the appropriate amount of dilution solution to form 12 mL spray solution with active ingredients in combination. Banvel™ (dicamba dimethylamine salt) and Durango™ herbicide (glyphosate dimethylamine salt) alone and in combinations were applied to the foliage of plant material with an overhead Mandel track sprayer equipped with 8002E nozzles calibrated to deliver 187 L/ha over an application area of 0.503 square meters (m^2) at a spray height of 18 inches (43 cm) above average plant canopy. Control plants were sprayed in the same manner with the solvent blank.
(§5) The treated plants and control plants were placed in a greenhouse as described above and watered by sub-irrigation to prevent wash-off of the test compounds. After 14-21 d, the condition of the test plants as compared with that of the control plants was determined visually and scored on a scale of 0 to 100 percent where 0 corresponds to no injury and 100 corresponds to complete kill.
(§6) Colby's equation was used to determine the herbicidal effects expected from the mixtures (Colby, S. R. 1967. Calculation of the synergistic and antagonistic response of herbicide combinations. Weeds 15:20-22.).
(§7) The following equation was used to calculate the expected activity of mixtures containing two active ingredients, A and B:
(§8) A=observed efficacy of active ingredient A at the same concentration as used in the mixture;
(§9) B=observed efficacy of active ingredient B at the same concentration as used in the mixture.

[2] = tested on: CHEAL = Chenopodium album (Common lambsquarters/fat hen); test: Greenhouse postemergence foliar herbicidal test on CHEAL
Description: as §1, §2, §3, §4, §5, §6, §7, §8, §9

[3] = tested on: COMBE = Commelina benghalensis (Dayflower); test: Greenhouse postemergence foliar herbicidal test on COMBE
Description: as §1, §2, §3, §4, §5, §6, §7, §8, §9

[4] = tested on: ERICA = Conyza canadensis (horseweed/marestail); test: Greenhouse postemergence foliar herbicidal test on ERICA
Description: as §1, §2, §3, §4, §5, §6, §7, §8, §9

[5] = tested on: ERICA GLY-RES (Glyphosate-resistant Conyza canadensis); test: Greenhouse postemergence foliar herbicidal test on ERICA GLY-RES
Description: as §1, §2, §3, §4, §5, §6, §7, §8, §9

Row | Compound | Herbicidal effect, observed (Ob), visual injury 0-100 ([1]; applied alone at 35 g/ha) [%] | Herbicidal effect, observed (Ob), visual injury 0-100 ([1]; applied alone at 70 g/ha) [%] | Herbicidal effect, observed (Ob), visual injury 0-100 ([1]; applied alone at 140 g/ha) [%] | Herbicidal effect, observed (Ob), visual injury 0-100 ([1]; applied alone at 280 g/ha) [%] | Herbicidal effect, observed (Ob), visual injury 0-100 ([2]; applied alone at 35 g/ha) [%] | Herbicidal effect, observed (Ob), visual injury 0-100 ([2]; applied alone at 70 g/ha) [%] | Herbicidal effect, observed (Ob), visual injury 0-100 ([2]; applied alone at 140 g/ha) [%] | Herbicidal effect, observed (Ob), visual injury 0-100 ([2]; applied alone at 280 g/ha) [%] | Herbicidal effect, observed (Ob), visual injury 0-100 ([3]; applied alone at 35 g/ha) [%] | Herbicidal effect, observed (Ob), visual injury 0-100 ([3]; applied alone at 70 g/ha) [%] | Herbicidal effect, observed (Ob), visual injury 0-100 ([3]; applied alone at 140 g/ha) [%] | Herbicidal effect, observed (Ob), visual injury 0-100 ([3]; applied alone at 280 g/ha) [%] | Herbicidal effect, observed (Ob), visual injury 0-100 ([4]; applied alone at 35 g/ha) [%] | Herbicidal effect, observed (Ob), visual injury 0-100 ([4]; applied alone at 70 g/ha) [%] | Herbicidal effect, observed (Ob), visual injury 0-100 ([4]; applied alone at 140 g/ha) [%] | Herbicidal effect, observed (Ob), visual injury 0-100 ([4]; applied alone at 280 g/ha) [%] | Herbicidal effect, observed (Ob), visual injury 0-100 ([5]; applied alone at 35 g/ha) [%] | Herbicidal effect, observed (Ob), visual injury 0-100 ([5]; applied alone at 70 g/ha) [%] | Herbicidal effect, observed (Ob), visual injury 0-100 ([5]; applied alone at 140 g/ha) [%] | Herbicidal effect, observed (Ob), visual injury 0-100 ([5]; applied alone at 280 g/ha) [%]
1 | O=C(O)CNCP(=O)(O)O [Glyphosate + AMS, N-(phosphonomethyl)glycine] | 9 | 9 | 41 | 51 | 8 | 12 | 57 | 66 | 7 | 27 | 49 | 58 | 47 | 55 | 72 | 78 | 0 | 0 | 3 | 7
2 | COc1c(Cl)ccc(Cl)c1C(=O)O [Dicamba, 3,6-dichloro-2-methoxybenzoic acid] | 33 | 48 | 64 | 83 | 34 | 40 | 52 | 61 | 18 | 25 | 43 | 42 | 62 | 81 | 93 | 97 | 62 | 83 | 95 | 97
